The text below walks through data of patent US11744861B2, “Compositions and methods for selective elimination and replacement of hematopoietic stem cells” (Poseida Therapeutics, Inc., priority 2017, dated 2023).

Assay [1] relates to CARTyrin-expressing cells. Put plainly: in vitro efficacy of iC9 safety switch with AP1903 (relative viability, live cells per bead events). It counts as cell-based, Human. As to the method:
FIGS. 2A-2B is a series of graphs depicting results of evaluating the in vitro efficacy of an inducible proapoptotic polypeptide (iC9 safety switch) of the disclosure using the exemplary induction agent AP1903. Cells expressing a CARTyrin of the disclosure were A) thawed and rested overnight or B) activated using ImmunoCult™ Human CD3/CD28/CD2 T cell Activator reagent for 5 days were treated with AP1903 for the indicated length of time and concentrations. All data points were collected in triplicate and relative viability determined by dividing the number of live cells in the treatment group by the average number of live cells in the no treatment group per 1,500 bead events collected. Greater than 80% of the non-activated CARTyrin-expressing cells were eliminated from the culture at 24 hours across all dose levels tested (FIG. 1). There was no observable difference between the 24 hour and 48 hour time point in the non-activated cells. In the activated CARTyrin-expressing cells however, both a dose response as well as temporal response were observed. At 12 hours post AP1903 administration, >65% of the cells were killed by concentrations as low as 1 nM. […] Expression of the CARTyrin is be increased upon activation of the cells, and provided the vector design; the expression of iC9 could also increase. Therefore, an activated cell may express higher levels of iC9 making it more sensitive to AP1903. In many embodiments, the activated cells will be the target if and when employing the safety switch.

Assay [2] relates to Human pan T-cells with piggyBac integrated iC9. The assay is described as follows: iC9 safety switch test, viability by flow cytometry using 7-AAD. It counts as cell-based. Conditions: iC9-containing modified T cells; 24 hours incubation. The source says:
Human pan T-cells were nucleofected using an Amaxa 4D nucleofector with one of four piggyBac transposons. Modified T cells receiving the “mock” condition were nucleofected with an empty piggyBac transposon. Modified T cells received either a piggyBac […] containing a therapeutic agent alone (a sequence encoding a CARTyrin) or a piggyBac […] containing an integrated iC9 sequence and a therapeutic agent (a sequence encoding a CARTyrin). To test the iC9 safety switch, each of the four modified T cells were incubated for 24 hours with 0, 0.1 nM, 1 nM, 10 nM, 100 nM or 1000 nM AP1903 (an induction agent for […]). Viability was assessed by flow cytometry using 7-aminoactinomycin D (7-AAD), a fluorescent intercalator, as a marker for cells undergoing apoptosis. Cell viability was assessed at day 12 (see FIG. 2). […] Moreover, cell viability was assessed at day 19 (see FIG. 3). […] A quantification of the aggregated results was performed and is provided in FIG. 4, showing the significant impact of the iC9 safety switch on the percent cell viability as a function of the concentration of the induction agent (AP1903) of the iC9 switch for each modified cell type at either day 12 (FIG. 2 and left graph) or day 19 (FIG. 3 and right graph). […] Furthermore, the iC9 safety switch may be functionally expressed as part of a tricistronic vector.

For the compound `CC[C@H](C(=O)N1CCCC[C@H]1C(=O)O[C@H](CCc1ccc(OC)c(OC)c1)c1cccc(OCC(=O)NCCNC(=O)COc2cccc([C@@H](CCc3ccc(OC)c(OC)c3)OC(=O)[C@@H]3CCCCN3C(=O)[C@@H](CC)c3cc(OC)c(OC)c(OC)c3)c2)c1)c1cc(OC)c(OC)c(OC)c1` [AP1903], the cells killed in assay [1] (activated CARTyrin-expressing cells, 12 hours post AP1903, concentrations as low as 1 nM) was greater than 65%; in assay [1] (activated cells, 48 hours), greater than 95%. In addition, in assay [1] (non-activated CARTyrin-expressing cells, 24 hours, all dose levels tested), the “cells eliminated from the culture” value is “Greater than 80%”. Moreover, the “concentration at which apoptosis is induced (lowest of the study)” value in assay [2] is on record as 0.1 nM.
